Legend:
human adult astrocytes = test: cDNA array profiling of cytokine, chemokine and growth factor genes in human adult astrocytes; format: cell-based
Method: Adult human astrocytes from post-mortem subcortical white matter samples were isolated and cultured as previously described (Bsibsi et al., J Neuropath Exp Neurol 61:1013-1021 [2002]). […] When indicated astrocytes were stimulated with 50 μg/mL poly I:C (Amersham Pharmacia Biotech, Piscataway, N.J.) or 200 ng/mL LPS (Sigma-Aldrich, Steinheim, Germany) to activate TLR3 and TLR4, respectively. […] It should be noted that contaminants in the commercial LPS preparation could possibly lead to some level of TLR2 activation in addition to TLR4 by the LPS preparation used but not of TLR3. When stimulated with cytokines, astrocytes were supplied with TNF-α, IFN-γ, IL-1β (each at 500 U/mL), IL-4 (at 250 U/mL), IL-6 (at 200 U/mL), IL-12 (at 50 ng/mL), IL-10 (at 20 ng/mL) and TGF-β (at 12.5 ng/mL) (PeproTech, Rocky Hill, N.Y.). […] Endothelial cells (UVEC) were isolated from umbillical cords and cultured on gelatin-coated dishes in M199 supplemented with 20 nM HEPES, 10% human serum, 10% heat-inactivated NBCS, 150 mg/mL ECGF, 5 U/mL heparin, 100 IU/mL penicillin and […] streptomycin.
Analysis of the mRNA profile of astrocytes was performed by hybrid selection of ^32P-labeled cDNA on Clontech human cytokine/chemokine Atlas® arrays as previous described (Meeuwsen et al., Glia 43:243-253 [2003]). Hybridization signals for each of the 268 cytokine, chemokine and growth factor (receptor) genes were calculated as the mean of duplicate measurements, corrected for background intensity and quantified using software provided by the manufacturer. Relative expression was calculated by dividing these hybridization signals by the mean signal for all nine housekeeping reference genes on the corresponding array.
Gene profiling was performed using astrocytes from four different control donors.
Astrocytes were isolated from post mortem human brain tissue samples and cultured under conditions as described elsewhere in this application. One part of the culture was stimulated with 50 μg/ml stathmin, the second with 50 μg/ml poly I:C and a third was left untreated to served as a reference control. Following another 48 h RNA was isolated from each culture and ^32P-labeled cDNA was prepared by reverse transcription. Subsequent hybrid selection of these ^32P-labeled cDNA samples was performed on Clontech Atlas® arrays containing selective probes for 268 cytokines, chemokines and growth factors, and various receptors for these mediators. All hybridization signals were calculated as the mean of duplicate measurements, corrected for background intensity and quantified using software provided by the manufacturer. Relative signal strength was next calculated by dividing these averaged hybridization signals by the mean signal for all nine housekeeping reference genes that were also present on each array as a reference.

[1] = test system: astrocytes from TLR3-deficient mice; test: IL-6 release by astrocytes from TLR3-deficient mice (ELISA); format: cell-based; settings: TLR3-deficient mouse astrocytes, 48 h
Method: (§1) Astrocytes were cultured in poly L-lysine coated 96 well-flat-bottom plates at 1×10^4 cells per well in 100 l DMEM/HAM-F10 medium containing 10% FCS and antibiotic supplements for 24 h to obtain post-confluent cultures. Recombinant human stathmin was next added to astrocytes, and parallel control stimuli were performed with either poly I:C, an established TLR3 agonist, or ultrapure lipopolysaccharides, established TLR4 agonists. After addition of these stimuli astrocytes were incubated for another 48 h. Astrocyte culture supernatants were subsequently collected and using a commercial ELISA kit levels of IL-6 were determined, as a marker for TLR-mediated activation of murine astrocytes.

TLR3 [2] = test: IL-6 release by astrocytes from wild-type mice (ELISA); format: cell-based; settings: wild-type mouse astrocytes, 48 h
Method: as §1

[3] = test system: experimental autoimmune encephalomyelitis; settings: mice treated 5, 7 and 9 days after induction of the disease; cited from earlier work
TLR3 [4] = test: CXCL8 release by cultured human astrocytes (ELISA); format: cell-based; settings: human adult astrocyte cultures
Method: (§2) Cos-7 cells (25,000 cells per well in 96-well plates) were transfected for 5 h with 768 pools of cDNA derived from human brain tumours (5 pooled tumours including meningioma, oligodendroglioma, astrocytoma grades II and IV, and medulloblastoma; NCI CGAP Brn35; Invitrogen) using lipofectamine, after which cells were thoroughly washed. Transfection with green-fluorescent protein-encoding cDNA was used as an internal control for transfection efficiencies. After continued culture of the transfected cells for 48 h, 75 μL of each culture supernatant was harvested and added to cultured human astrocytes seeded at 1,000 cells per well in 75 μL. After 48 h of culture, supernatants were harvested and evaluated for CXCL8 release using ELISA. Stimulation of astrocytes with poly I:C served as positive controls for CXCL8 release in all cases, non-transfected Cos 7 culture supernatants as negative controls.
Purified recombinant stathmin was exposed to two different conditions that differentially affect the extent of helix formation within the protein chain. One part of the protein preparation was exposed to 5% trifluoroacetic acid (TFA) in water for 1 h at 37° C., strongly acidic conditions that tend to disrupt an alpha helix. In parallel, another part was exposed for 1 h at 37° C. to 5% of the helix-promoting solvent trifluoroethanol (TFE) in phosphate-buffered saline (PBS). After exposure to these different conditions, both protein samples were extensively dialysed for 48 h against several changes of PBS. Next, the samples were analyzed by […] circular dichroism spectroscopy that allows calculation of helical content on the basis of elipticity in the absorption of circularly polarized light. In both cases, another part of the dialyzed sample was tested in parallel for induction of TLR3-mediated release of CXCL8 (IL-8) in human astrocytes as described elsewhere in this application.

[5] = test system: neurons in organotypic human brain slice cultures; test: Neuronal survival in organotypic human brain slice cultures (calcein-AM / ethidium homodimer-1); format: cell-based; settings: slices cultured 1 week; p<0.03
Method: Organotypic human brain slice cultures were set up and analyzed as previously described (Verwer et al., FASEB J. 16:54-60 [2002]). Briefly, tissue blocks were collected from different post-mortem cortical samples and 200-μm slices were produced. These slices were cultured for 1 week in Poly I:C- or LPS-conditioned astrocyte media that were obtained upon culturing astrocytes in the presence of either 50 μg/mL poly I:C or 200 ng/mL LPS. As a control untreated astrocyte-conditioned media from the same donor was used. All astrocyte-conditioned media were harvested after 48 h and stored at −20° C. Viability of neurons in the slice cultures was evaluated using calcein-AM and ethidium homodimer-1 (molecular Probes, Eugene, Oreg.). A Zeiss 410 Invert confocal laser scanning microscope was used to inspect the slices and quantify staining.

human astrocytes = test: cDNA bank screening: COS-7 transfectant supernatants on human astrocytes, CXCL8 release; format: cell-based; settings: COS-7 supernatant, 48 h
Method: as §2, with “Stimulation of astrocytes with poly I:C served as positive controls for CXCL8 release in all cases, non-transfected Cos 7 culture supernatants as negative controls.” left out
A cDNA bank derived from 5 pooled tumours including meningioma, oligodendroglioma, astrocytoma grades II and IV and medulloblastoma was used as a source of sequences potentially encoding an endogenous protein agonist for TLR3. The cDNAs were cloned into plasmid vectors promoting expression and secretion of the cDNA-encoded product by mammalian cells, and these plasmids were transfected into COS-7 cells and evaluated in a two-step approach. […] To monitor such an astrocyte response in this first stage, secretion of CXCL8 was evaluated since this is a sensitive marker for TLR3 activation in these and other cells (cf. FIGS. 9 and 10). […]

[6] = agonist-treated vs untreated astrocytes, 48 h

Question: With poly I:C as the molecule, how does the “change in expression of genes encoding immune mediators and growth factors” value (human adult astrocytes; 50 μg/ml, 48 h) read?
Answer: comprehensive and marked change in expression

Question: What about the “Jag1, downregulation factor” value (human adult astrocytes; 48 h) of the same molecule?
Answer: 1.96

Question: What about the “p40 subunit of IL-12 and IL-23, down-regulation factor” value (human adult astrocytes; 48 h) of the same molecule?
Answer: ~2

Question: And the “ERBB4 receptor protein-tyrosine kinase, ratio of expression” value (human adult astrocytes; [6])?
Answer: 0.43

Question: And the “Smo, ratio of expression” value (human adult astrocytes; [6])?
Answer: 0.48

Question: What about the “VEGF receptor 2, ratio of expression” value (human adult astrocytes; [6]) of the same molecule?
Answer: 0.22

Question: What about the “induction of chemokines CXCL8, CXCL2 and CCL3” value (human adult astrocytes; astrocytes) of the same molecule?
Answer: strongly induced

Question: And the “induction of IL-9” value (human adult astrocytes; astrocytes, 48 h)?
Answer: 7.5 fold

Question: And the “induction of IL-10” value (human adult astrocytes; astrocytes, 48 h)?
Answer: 2.3 fold

Question: What about the “induction of IL-11” value (human adult astrocytes; astrocytes, 48 h) of the same molecule?
Answer: 3.2 fold

Question: And the “induction of TNF-α” value (human adult astrocytes; astrocytes, 48 h)?
Answer: induced

Question: What about the “induction of tumour necrosis factor-stimulated gene 6 (TSG-6)” value (human adult astrocytes; astrocytes, 48 h) of the same molecule?
Answer: over 10 fold

Question: What about the “induction of CCL4, CXCL6, CCL5, CXCL9 and CCL2” value (human adult astrocytes; astrocytes, to a lesser extent) of the same molecule?
Answer: leads to induction

Question: And the IL-6 release [1]?
Answer: fully abrogated

Question: What about the IL-6 release (TLR3 [2]) of the same molecule?
Answer: marked IL-6 release

Question: And the “disease development in EAE” value [3]?
Answer: almost completely blocks subsequent disease development

Question: And the “release levels of CXCL8” value (TLR3 [4])?
Answer: around 200 ng/mL

Question: What about the survival of neurons [5] of the same molecule?
Answer: promoted neuronal survival equally well

B1: clone F5: cDNA clone product with amino acid sequence identical to residues 44-149 of human stathmin (protein)
chain: DFSLEEIQKKLEAAEERRKSHEAEVLKQLAEKREHEKEVLQKAIEENNNFSKMAEEKITHKMEANKENREAQMAAKLERLREKDKHIEEVRKNKESKDPADETEAD
Question: With B1 as the molecule, how does the “CXCL8 secretion in astrocytes triggered by cDNA-encoded product” value (human astrocytes) read?
Answer: marked CXCL8 secretion

Reference: patent US20090253622A1, “USE OF TLR3 AGONISTS FOR THE TREATMENT OF NEURODEGENERATIVE DISORDERS” (Nederlandse Organisatie voor toegepast - …, priority 2006, published 2009)
